The values that follow come from ChEMBL document CHEMBL1123773, “The role of solvent-accessible surface area in determining partition coefficients” (J Med Chem, 1987).

As a reminder, the logP is a log measure of how a compound divides between an organic and an aqueous phase. The low end stands for a more hydrophilic compound, the high end for a more lipophilic compound.

Data set [1] can be described thus: Partition coefficient (logP) (ether). The conditions noted are these: octanol/water.
Data set [2] is described as follows: Partition coefficient (logP) (hexane). The conditions noted are these: octanol/water.
Data set [3] can be described thus: Partition coefficient (logP) (chloroform). The conditions noted are these: octanol/water.
Data set [4] is described as follows: Partition coefficient (logP). Conditions: octanol/water.
Data set [5] in a line: Diffusion constant for permeability of stratum corneum. The data set is classed as ADME.
Data set [6] in a line: Partition coefficient (logP) (carbon tetrachloride). Conditions: octanol/water.
The nature of data set [7]: Partition coefficient (logP) (benzene). Conditions: octanol/water.

Consider `Nc1cccc([N+](=O)[O-])c1` [3-NITROANILINE], for which the figures for the logP in data set [1], in data set [2] and in data set [3] were 1.71, -0.62 and 1.61, respectively.
As for `O=C(O)C(Cl)(Cl)Cl` [TRICHLOROACETIC ACID], the log partition coefficient (logP) in data set [1] was 1.21; in data set [2], -2.63; in data set [3], -0.69; in data set [4], 1.33.
`Nc1ccccc1[N+](=O)[O-]` [2-NITROANILINE]: the lipophilicity (logP) was 1.95 in data set [1], 0.25 in data set [2], 2.13 in data set [3] and 1.85 in data set [4].
`O=C(O)c1ccc(O)cc1` [PARABEN]: the logP in data set [1] was 1.42; in data set [2], -1.82; in data set [3], -0.5.
`CO` [METHYL ALCOHOL]: the log partition coefficient (logP) in data set [1] is -1.15; in data set [2] it was -2.8; in data set [3], -1.26; in data set [4] it was -0.77.
Take `COc1cc(C=O)ccc1O` [VANILLIN]: the logP in data set [1] is recorded as 0.96; in data set [2], -0.72; in data set [3], 1.42.
For `CCCC(C)C1(CC)C(=O)NC(=O)NC1=O` (centres undefined) [PENTOBARBITAL], the logP in data set [1] was 1.28; in data set [2] it was -1.3; in data set [3] it was 1.38; in data set [4] it was 2.1.
As for `CCC(=O)O` [PROPIONIC ACID], the lipophilicity (logP) in data set [1] is given as 0.27; in data set [2] it was -2.14; in data set [3], -0.96.
In turn, `C[C@]12C[C@H](O)[C@H]3[C@@H](CCC4=CC(=O)CC[C@@]43C)[C@@H]1CC[C@@H]2C(=O)CO` [CORTICOSTERONE] came in with a Log k in data set [5] of 1.78.
Still for that read-out and setting: in the case of `CC(=O)[C@H]1CC[C@H]2[C@@H]3CC=C4C[C@@H](O)CC[C@]4(C)[C@H]3CC[C@]12C` [PREGNENOLONE] it was 3.17.
On to `O=[N+]([O-])c1cccc(O)c1` [3-NITRO-PHENOL], for which the logP is listed as 2.18 in data set [1], -1.4 in data set [2] and 0.6 in data set [3].
For the compound `Oc1ccc2ccccc2c1` [BETANAPHTHOL], the log partition coefficient (logP) in data set [6] was determined as 0.99; in data set [1] it was 1.77; in data set [7] it was 1.74; in data set [2] it was 0.3; in data set [3], 1.74.
In data set [5], `C[C@]12CCC(=O)C=C1CC[C@@H]1[C@@H]2C(=O)C[C@@]2(C)[C@H]1CC[C@]2(O)C(=O)CO` [CORTISONE] showed a Log k of 1.
The same measure, in the same setting: in the case of `C[C@]12CC[C@H]3[C@@H](CCC4=CC(=O)CC[C@@]43C)[C@@H]1CC[C@@H]2C(=O)CO` [DESOXYCORTICOSTERONE] it was 2.65.
As for `COc1ccc(C=O)cc1O` [ISOVANILLIN], the logP is 0.82 in data set [1], -0.85 in data set [2], 1.18 in data set [3] and 0.97 in data set [4].
For `CC(C)CO` [ISOBUTANOL], the logP is 0.53 in data set [1], -0.6 in data set [2], 0.34 in data set [3] and 0.65 in data set [4].
`CCCCCO` [1-PENTANOL]: the logP in data set [1] was 1.2; in data set [2], -0.4; in data set [3], 1.05.
For `CC(C)=O` [ACETONE] the same measures were -0.21, -0.91 and 0.24.
With `CCN` [ETHYLAMINE], the logP is -1.18 in data set [1], -1.77 in data set [2], -0.35 in data set [3] and -0.3 in data set [4].
For `CCOC(C)=O` [ETHYL ACETATE], the logP in data set [1] is reported as 0.93; in data set [2] it was 0.29; in data set [3] it was 1.8.
`Nc1ccccc1` [ANILINE]: the lipophilicity (logP) in data set [1] is 0.85; in data set [2], -0.3; in data set [3], 1.42.
Regarding `COc1ccc(O)cc1` [MEQUINOL], the values for the log partition coefficient (logP) in data set [1], in data set [2] and in data set [3] were 1.47, -0.76 and 0.23, respectively.
The compound `CC(=O)[C@@]1(O)CC[C@H]2[C@@H]3CC[C@@H]4C[C@H](O)CC[C@]4(C)[C@H]3CC[C@@]21C` [HYDROXYPREGNENOLONE] displayed a Log k in data set [5] of 2.78.
In the case of `C[C@]12CCC(=O)C=C1CC[C@@H]1[C@@H]2CC[C@@]2(C)[C@H]1CC[C@]2(O)C(=O)CO` [CORTODOXONE], the Log k in data set [5] is given as 1.88.
`O=[N+]([O-])c1ccccc1O` [NITROPHENOLATE]: the logP is reported as 2.18 in data set [1], 1.4 in data set [2] and 2.35 in data set [3].
With `CCC1(c2ccccc2)C(=O)NC(=O)NC1=O` [PHENOBARBITAL], the log partition coefficient (logP) is 1.51 in data set [1], -2.22 in data set [2], 0.62 in data set [3] and 1.71 in data set [4].
Take `CCCCCC(=O)O` [HEXANOATE]: the log partition coefficient (logP) is on record as 1.95 in data set [1], -0.46 in data set [2] and 1.15 in data set [3].
Turning to `COC(C)=O` [ACETIC ACID METHYL ESTER], the results for the log partition coefficient (logP) in data set [1], in data set [2] and in data set [3] were 0.43, -0.26 and 1.16, respectively.
With `Oc1ccc(O)cc1` [HYDROQUINONE], the log partition coefficient (logP) in data set [6] came to 0.04; in data set [1], 0.38; in data set [7], 0.15; in data set [2] it was 0.05; in data set [3], 0.23.
`O=C(O)c1ccccc1O` [SALICYLIC ACID]: the logP is listed as 0 in data set [6]; 2.37 in data set [1]; 0.5 in data set [7]; -0.57 in data set [2]; 0.58 in data set [3].
`C[C@]12CC[C@H]3[C@@H](CCC4=CC(=O)CC[C@@]43C)[C@@H]1CC[C@@H]2O` [TESTOSTERONE] had a Log k in data set [5] of 2.6.
`Nc1ccccc1C(=O)O` [ANTHRANILIC ACID]: the logP in data set [1] was 1.43; in data set [2], -2.12; in data set [3], -1.15; in data set [4] it was 1.21.
`CCC(N)CC`: the logP is -0.07 in data set [1], -0.48 in data set [2], 0.81 in data set [3] and 0.57 in data set [4].
Consider `O=C(O)c1cccc([N+](=O)[O-])c1`, for which the results for the logP in data set [1], in data set [2] and in data set [3] were 1.97, -1.22 and 0.48, respectively.
`CC(=O)[C@H]1CC[C@H]2[C@@H]3CCC4=CC(=O)CC[C@]4(C)[C@H]3CC[C@]12C` [PROGESTERONE] yielded a Log k in data set [5] of 3.18.
Take `COc1ccccc1O` [GUAIACOL]: the lipophilicity (logP) was 1.44 in data set [1], 0.36 in data set [2], 1.7 in data set [3] and 1.32 in data set [4].
With `CC(C)(C)N` [TERT-BUTYLAMINE], the logP was -0.26 in data set [1], -0.48 in data set [2], 0.54 in data set [3] and 0.27 in data set [4].
Turning to `C[C@]12CCC(=O)C=C1CC[C@@H]1[C@@H]2[C@@H](O)C[C@]2(C=O)[C@@H](C(=O)CO)CC[C@@H]12` [ALDOSTERONE], the Log k in data set [5] is reported as 0.48.
In the case of `COc1cccc(C=O)c1O`, the log partition coefficient (logP) worked out at 1.35 in data set [1], 0.53 in data set [2], 2.3 in data set [3] and 1.37 in data set [4].
For the compound `CCCN` [PROPYLAMINE], the logP was -0.54 in data set [1], 0.26 in data set [3] and 0.28 in data set [4].
For `O=C(O)CCl` [CHLOROACETIC ACID], the logP in data set [1] was 0.37; in data set [2] it was -3.14; in data set [3], -1.92; in data set [4], 0.22.
Regarding `Oc1ccccc1` [PHENOL], the log partition coefficient (logP) is -0.36 in data set [6]; 1.64 in data set [1]; 0.36 in data set [7]; -0.7 in data set [2]; 0.37 in data set [3].
Regarding `CCCCN` [BUTYLAMINE], the logP in data set [1] was 0.11; in data set [2], -0.62; in data set [3], 0.56; in data set [4], 0.74.
Take `CC(=O)[C@@]1(O)CC[C@H]2[C@@H]3CCC4=CC(=O)CC[C@]4(C)[C@H]3CC[C@@]21C` [HYDROXYPROGESTERONE]: the Log k in data set [5] stood at 2.78.
Regarding `CCCCC(=O)O` [VALERIC ACID], the lipophilicity (logP) is 1 in data set [1], -1 in data set [2], 0.28 in data set [3] and 1.39 in data set [4].
As for `CCCCCCCO` [1-HEPTANOL], the log partition coefficient (logP) in data set [1] came to 2.4; in data set [2] it was 1.01; in data set [3], 2.41; in data set [4], 2.41.
For `O=Cc1ccc(O)cc1` [4-HYDROXYBENZALDEHYDE], the log partition coefficient (logP) in data set [1] is 1.1; in data set [2] it was -0.95; in data set [3], -0.12.
Turning to `O=[N+]([O-])c1ccc(O)cc1` [P-NITROPHENOL], the figures for the log partition coefficient (logP) in data set [1], in data set [2] and in data set [3] were 2.01, -2 and 0.2, respectively.
